Results published in publication PMC6227957, “Peptides derived from cadherin juxtamembrane region inhibit platelet function” (Royal Society Open Science, 2018).

Experiments:
washed human platelets [1] = assay: Platelet ATP secretion, luminescence-based assay; assay type: cell-based; conditions: for Platelet ATP secretion induced by peptide alone (basal, no agonist) / Effect on TRAP-induced platelet ATP secretion: 50 µM peptide, washed human platelets; for Platelet ATP secretion induced by peptide alone (basal, no agonist): 12 min at 37°C, without TRAP, n = 6, figure 2; for Effect on TRAP-induced platelet ATP secretion: preincubated 12 min at 37°C, then 4 µM TRAP for 3 min, luminescence arb. units, figures 2, 3c,d; for Effect on TRAP-induced platelet ATP secretion, alanine scan and control peptides of KEPLLP: 12.5 µM peptide, n = 4 donors, figure 5a,b
Protocol: Washed platelets (WPs) were prepared from blood samples collected from healthy donors who were free of medications known to affect platelet function for at least 10 days, as previously described. Written, informed consent was obtained from all participants in line with the Declaration of Helsinki. In brief, venous blood was drawn into 15% (v/v) of acid-citrate-dextrose (ACD) anticoagulant (38 mM citric acid anhydrous, 75 mM sodium citrate, 124 mM dextrose). Blood was centrifuged at 150g for 10 min and the platelet-rich plasma (PRP) was collected. PRP was further centrifuged at 720g for 10 min in the presence of 1 µM prostaglandin E1 (PGE1). The platelet pellet was resuspended in buffer A (6 mM dextrose, 130 mM NaCl, 9 mM NaHCO3, 10 mM sodium citrate, 10 mM Tris base, 3 mM KCl, 0.81 mM KH2PO4 and 0.9 mM MgCl2·6H2O, pH 7.4). The washed platelet count was adjusted to 3 × 10^8 platelets ml^−1 and supplemented with 1.8 mM CaCl2 immediately prior to use.
ATP secretion was measured using a luminescence-based assay, as previously described. Peptides, buffer or vehicle control, in a final volume of 10 µl, were dispensed into white 96-well plates. To this, 70 µl of WPs were gently added. Platelets were incubated with peptides at 37°C for 12 min (under shaking) in the Perkin Elmer 1420 96-well plate reader. Platelet agonist (TRAP; 4 µM; 10 µl) was then added to induce platelet ATP secretion. The suspension (peptide + platelets + agonist) was incubated for 3 min at 37°C with constant shaking. Finally, 10 µl of ATP detecting reagent chronolume (Labmedics, UK) was dispensed into each well and luminescence was measured using the Perkin Elmer 1420 96-well plate reader. Platelet ATP secretion response to peptides was measured in the presence and absence of agonist. Data were expressed as the amount of ATP secretion in luminescence arbitrary units (arb. units). Data are represented as the mean ± standard error mean (s.e.m.) of at least four independent donors.

washed human platelets [2] = assay: Platelet ATP secretion, luminescence-based assay; assay type: cell-based; conditions: TRAP 0.25 to 16 µM for 3 min at 37°C; n = 4 donors; figure S1

In the case of `CCCCCCCCCCCCCCCC(=O)NCCCOCCOCCOCCCNC(=O)CCC(N)=O` [palmitic acid connected to a Ttds linker, reference compound], the “Platelet ATP secretion induced by peptide alone (basal, no agonist)” value (washed human platelets [1]) is reported as “no effect” and the “Effect on TRAP-induced platelet ATP secretion” value (washed human platelets [1]; n = 6 donors) is reported as “no effect”.
`CCCCCCCCCCCCCCCC(=O)O` [palmitic acid, reference compound] was tested, and the “Platelet ATP secretion induced by peptide alone (basal, no agonist)” value (washed human platelets [1]) was “no effect” and the “Effect on TRAP-induced platelet ATP secretion” value (washed human platelets [1]; n = 6 donors) was “no effect”.
With “EEPLLP [KEPLLP with lysine replaced with glutamic acid, palmitoylated and amidated]” the “Effect on TRAP-induced platelet ATP secretion, alanine scan and control peptides of KEPLLP” value (from here on “Effect … of KEPLLP”) (washed human platelets [1]; 4 µM TRAP) was “loss of inhibitory effect”.
With “EKPLLP [N-terminus reverse charge peptide of KEPLLP, palmitoylated and amidated]” the “Effect … of KEPLLP” value (washed human platelets [1]; 4 µM TRAP) was “retained partial inhibitory activity”.
For “KEPAAP [KEPLLP with LL replaced with AA, palmitoylated and amidated]”, the “Effect … of KEPLLP” value (washed human platelets [1]; 4 µM TRAP) was “loss of peptide activity”.
In the case of “KEPLAP [KEPLLP with one leucine replaced with alanine, palmitoylated and amidated]”, the “Effect … of KEPLLP” value (washed human platelets [1]; 4 µM TRAP) is reported as “loss of peptide activity”.
For “KEPLLP [Non-palmitoylated KEPLLP, KEPLLP peptide with no palmitoylation]”, the “Effect of peptide with no palmitoylation on TRAP-induced platelet ATP secretion” value (washed human platelets [1]; 50 µM peptide for 12 min at 37°C before 4 µM TRAP, n = 4, figure S4) was “failed to inhibit”.
“KEPLLP [short motif truncated from E-cad 2, N-terminally palmitoylated and C-terminally amidated]” was tested, and the “Effect of truncated E-cad 2 peptides on TRAP-induced platelet ATP secretion” value (washed human platelets [1]; 4 µM TRAP, n = 6 donors, figure 4a) was “most potent inhibitor” and the “Lowest peptide concentration that significantly inhibited TRAP-induced platelet ATP secretion” value (washed human platelets [1]; dose-response study, 4 µM TRAP, n = 4, figure 4b) was 12.5 µM.
“PLLPKE [randomly scrambled peptide of KEPLLP, palmitoylated and amidated]” was tested, and the “Effect … of KEPLLP” value (washed human platelets [1]; 4 µM TRAP) was “failed to inhibit”.
In the case of SFLLRN [TRAP, reference compound], the “TRAP concentration at which ATP secretion is maximal” value (washed human platelets [2]) is reported as 16 µM and the “ATP secretion response at 4 µM TRAP relative to the maximal response” value (washed human platelets [1]; 4 µM TRAP, figure S1) is reported as “approximately 80%”.
